# Read-outs that look alike come from different tables or passages of the source.
# Assays:
# [1] = system: Rael; assay: Cell viability, CellTiter-Glo; conditions: read-out: 48 Hour IC50
# Procedure: (§5) Cell viability was determined using CellTiter-Glo (Promega) and the GloMax® Multi+ detection system (Promega).
# (§6) Cell viability was determined using an ATP based luminescent assay (CellTiter-Glo, Promega) and the GloMax® Multi+ detection system (Promega). IC50 values were calculated using Prism 6 software.
# (§7) To determine if induction of LMP1 and EBNA3 were linked to hypomethylating agent-induced cell death, cells were exposed to decitabine or 5-azacytadine over a range of doses and cell viability evaluated with the ATP-based Cell Titer-Glo® assay.
# [2] = system: Kem I; assay: Cell viability, CellTiter-Glo; conditions: 48 h, read-out: 48 Hour IC50
# Procedure: as §5, §6, §7
# [3] = system: BL cells; assay: Cell viability, CellTiter-Glo, statements for the BL cell panel
# Procedure: as §5, §6, §7
# [4] = system: LMP1 and EBNA3C proteins in BL cells; assay: Immunoblot for viral proteins in BL cells; assay type: cell-based, EBV; conditions: 48 hours
# Procedure: Immunoblot was performed with the standard procedure using the following antibodies: β-actin (GeneTex), BZLF1 (Santa Cruz), EBNA1 (Santa Cruz), EBNA2 (AbCam), EBNA3C (gift from Benjamin Gewurz), GAPDH (GeneTex), and LMP1 (AbCam).
# Since decitabine and 5-azacytadine were the top hits on the epigenetic screen, the effect of these agents on latency II/III transcript and protein expression was investigated as well as the dose-response in a panel of BL cell lines. BL cells were treated with decitabine or 5-azacytidine over a range of doses. Viral antigen expression was evaluated by qRT-PCR, immunoblot, and immunohistochemistry. […] This was associated with upregulation of LMP1 and EBNA3C proteins (FIG. 2B).
# [5] = system: Mutu I; assay: Cell viability, CellTiter-Glo; conditions: read-out: 48 Hour IC50
# Procedure: as §5, §6, §7
# [6] = system: LMP1 and Cp transcripts in Kem I, Mutu I, and Rael cell lines; assay type: cell-based, EBV
# [7] = system: EBNA2 and LMP1 in Mutu I, Kem I, and Rael cells; assay: Immunohistochemistry on cell blocks, statement across the three cell lines; assay type: cell-based, EBV; conditions: 5-Aza at 4 uM, 48 hours, compared with decitabine
# Procedure: (§1) Cell blocks were generated from cell lines in suspension by fixation in 10% formalin. Immunohistochemistry on cell blocks and mouse tumors was performed with the following antibodies: EBNA2 (abcam #ab90543), LMP1 (Dako #M0897), BZLF1 (Santa Cruz #SC-53904), CD8 (Leica #PA0183), PD-1 (Dako #M3653), PD-L1 (Cell Marque #315M-98). The Halo® image analysis software program (Indica Labs) was used to quantify immunohistochemical stains.
# (§2) Next it was determined the percentage of cells that convert to expressing latency […] antigens after treatment with decitabine or 5-azacytadine. To do this, EBV antigen expression at the single-cell level was evaluated by immunohistochemistry (IHC) from cell blocks. Cells were treated with 5-azacytidine, decitabine, or vehicle control. Cell blocks were then evaluated by IHC for LMP1 and EBNA2. The percentage of positive cells was quantified with HALO image analysis. […] 5-azacytidine induced a more modest expression of EBNA2 and LMP1 across the three cell lines (FIGS. 2E-F). Based on these observations, decitabine was further investigated as a potential agent to induce expression of immunogenic viral antigens in latency I tumors.
# [8] = system: LMP1 expression in Kem I cells; assay: microbe, parasite or virus in culture; assay type: cell-based, EBV; conditions: human gammaherpesvirus 4, 48 h
# [9] = Cell viability, CellTiter-Glo; conditions: human, Kem I cells
# Procedure: as §5, §6, §7
# [10] = system: EBV genome in Kem I, Rael, and Mutu I cells; assay: Quantitative DNA methylation analysis using MassARRAY EpiTYPER; assay type: cell-based; conditions: 48 hours, all three latency I cell lines, including Cp promoter and LMP1/2 loci
# [11] = in vitro; conditions: human, Mutu I cells
# Procedure: as §5, §6, §7
# [12] = system: Rael cells; assay: Cr51 release assay with EBV-CTLs; assay type: cell-based; conditions: Rael cells treated at 250 nM for 72 hours, 25:1 effector to target ratio
# [13] = system: BZLF1 in Rael, Mutu I, and Kem I cells; assay: qRT-PCR for BZLF1 (lytic induction); assay type: cell-based, EBV; conditions: all three cell lines
# [14] = system: Mutu I cells; assay: Cr51 release assay with EBV-CTLs; assay type: cell-based; conditions: Mutu I cells treated at 250 nM for 72 hours, 25:1 effector to target ratio
# [15] = system: Kem I xenografts; assay: BL xenograft, immunohistochemistry of tumors for viral antigens; assay type: in vivo, mice
# Procedure: as §1
# (§3) To evaluate the effect of decitabine on viral antigen expression in-vivo, we generated Mutu I, Kem I, and Rael xenografts. Upon engraftment, mice were treated with a 7-day course of decitabine (0.5 mg/kg or 1 mg/kg daily) or vehicle control. After treatment tumors were evaluated by immunohistochemistry. Vehicle treated mice had minimal or no expression of EBNA2 and LMP1 (FIGS. 3A-B). […] LMP1 expression was increased in Kem xenografts (p=0.04, FIG. 3B).
# (§4) In addition to modulating latent gene expression, 5-azacytidine is known to activate lytic programming in EBV (Bhende, Seaman et al. 2004, Chan, Tao et al. 2004, Bergbauer, Kalla et al. 2010, Kalla, Gobel et al. 2012, Woellmer, Arteaga-Salas et al. 2012). Upon exposure to 5-azacytidine, the Rael cell line generates lytic and latent antigens but in distinct cell populations (Masucci, Contreras-Salazar et al. 1989). To determine if the lytic program was being activated after exposure to decitabine qRT-PCR was performed for BZLF1, the gene responsible for activating early lytic genes in Rael, Mutu I, and Kem I cells. […] In the xenograft models, BLZF1 was evaluated by IHC.
# [16] = system: Mutu I xenografts; assay: as above; assay type: in vivo, mice
# Procedure: as §1, §3, §4
# [17] = system: EBNA2 and LMP1 in Rael cells; assay: Immunohistochemistry on cell blocks with HALO quantification; assay type: cell-based, EBV; conditions: decitabine at 500 nM, 48 hours
# Procedure: as §1, §2
# [18] = system: EBNA2 and LMP1 in Mutu I cells; assay: as above; assay type: cell-based, EBV; conditions: decitabine at 500 nM, 48 hours
# Procedure: as §1, §2
# [19] = system: EBNA2 and LMP1 in Kem I cells; assay: as above; assay type: cell-based, EBV; conditions: decitabine at 500 nM, 48 hours
# Procedure: as §1, §2
# [20] = system: first 13 kB of the EBV genome in Kem I, Rael, and Mutu I cells; assay: Methyl-Capture sequencing of cell lines; assay type: cell-based
# [21] = system: subcutaneous xenografts of Rael cells; assay type: in vivo, NSG mice
# [22] = system: Rael xenografts; assay: BL xenograft, immunohistochemistry of tumors for viral antigens; assay type: in vivo, mice
# Procedure: as §1, §3
# If induction of immunogenic antigens were to be used as therapeutic approach in EBV+ lymphomas, it would be important to ensure that the induction persists after removal of drug to allow time for an adequate T-cell response. The durability of latency III induction was evaluated by treating cell lines with 250 nM of decitabine for 3 days and then evaluating LMP1 and Cp promoter expression after washout of the drug. […] Rael xenografts were also evaluated for durability of induction in-vivo. […] Mice observed at later timepoints continued to express EBNA2 with some areas of tumor remaining EBNA2 positive as late as 63 days post-treatment (FIG. 4C).
# In addition to modulating latent gene expression, 5-azacytidine is known to activate lytic programming in EBV (Bhende, Seaman et al. 2004, Chan, Tao et al. 2004, Bergbauer, Kalla et al. 2010, Kalla, Gobel et al. 2012, Woellmer, Arteaga-Salas et al. 2012).
# [23] = in vitro; conditions: human, Rael cells
# Procedure: as §5, §6, §7
compound,measurement,setting,value
Nc1ncn([C@@H]2O[C@H](CO)[C@@H](O)[C@H]2O)c(=O)n1 [5-azacytidine],IC50,[1],2.2 µM
same,IC50,[2],> 5 µM
same,IC50,[3],≥ 2.2 µM
same,change in cell viability,[3]; at the optimal dose for induction,minimal change
same,LMP1 and EBNA3C proteins (immunoblot),[4],not associated with significant induction
same,IC50,[5],4 µM
same,optimal dose for induction,[6]; BL cells,1 to 4 µM
same,induction of LMP1 and Cp,"[6]; at doses <1 μM, 48 hours",minimal
same,expression of EBNA2 and LMP1 (IHC),[7],more modest
same,fold induction at 1 µM,"[8]; read-out: Average LMP1 Fold Increase, Kem I cells, 1 uM, 48 hours, average of replicates 1 and 2",4.1
same,fold induction at 1 µM,"[8]; read-out: Replicate 1-LMP1 Fold Increase, Kem I cells, 1 uM, 48 hours, fold change in LMP1 transcript vs vehicle",5.77
same,fold induction at 1 µM,"[8]; read-out: Replicate 2-LMP1 Fold Increase, Kem I cells, 1 uM, 48 hours, fold change in LMP1 transcript vs vehicle",2.43
"Nc1ncn([C@H]2C[C@H](O)[C@@H](CO)O2)c(=O)n1 [decitabine, 5-aza-2′-deoxycytidine]",IC50,[1],> 5 µM
same,IC50,[2],> 5 µM
same,viability,[9],128%
same,DNA methylation across the EBV viral genome (MassARRAY),[10],loss of methylation
same,viability,[11],62%
same,IC50,[3],> 5 µM
same,% lysis by EBNA3C reactive EBV-CTLs,[12],26.07%
same,LMP1 and EBNA3C proteins (immunoblot),[4],upregulation
same,IC50,[5],> 5 µM
same,BZLF1 (qRT-PCR) over time after removal of drug,[13],decreased over time after removal of drug
same,BZLF1 (qRT-PCR),[13]; after exposure for 72 hours,increase
same,% lysis by EBNA3A reactive EBV-CTLs,[14],16.17%
same,% lysis by LMP1-reactive EBV-CTLs,[14],74.11%
same,LMP1 and Cp expression by qRT-PCR after washout,"[6]; 250 nM for 3 days, then 1, 3, 5, and 7 days after washout",persists with minimal decrement
same,lowest dose with dose dependent induction of LMP1 and Cp transcripts,"[6]; BL cells, 48 hours of treatment",25 nM
same,LMP1 expression in tumors (IHC),"[15]; 7-day course, 0.5 mg/kg or 1 mg/kg daily IP, p=0.04",increased
same,BZLF1 by IHC in tumors,"[15]; Kem I xenograft, 7 days of treatment",minimal or no induction
same,EBNA2 expression in tumors (IHC),"[16]; 7-day course, 0.5 mg/kg or 1 mg/kg daily IP, p=0.044",upregulation was observed
same,BZLF1 by IHC in tumors,"[16]; Mutu I xenograft, 7 days of treatment",induction was observed
same,percentage of EBNA2 positive cells,[17],37.2%
same,percentage of LMP1 positive cells,[17],27.4%
same,percentage of EBNA2 positive cells,[18],28.3%
same,percentage of LMP1 positive cells,[18],41.8%
same,percentage of EBNA2 positive cells,[19],57.8%
same,percentage of LMP1 positive cells,[19],54.9%
same,methylation across the covered areas (Methyl-Capture sequencing),"[20]; after treatment, all three cell lines",global hypomethylation
same,methylation after removal of drug (Methyl-Capture sequencing),[20]; drug 48 hours followed by 7-day washout,remained hypomethylated
same,latent antigens EBNA2 and LMP1 in tumors,"[21]; daily for 7 days, 1 mg/kg",induction
same,lytic protein BZLF1 in tumors,"[21]; daily for 7 days, 1 mg/kg",minimal change
same,PD-L1 expression in tumors,"[21]; mouse, in vivo",did not increase
same,EBNA2 expression in tumors (IHC),"[22]; 7-day course, 0.5 mg/kg or 1 mg/kg daily IP, p=0.017",upregulation was observed
same,BZLF1 by IHC in tumors,"[22]; Rael xenograft, 7 days of treatment",minimal or no induction
same,latest time with areas of tumor remaining EBNA2 positive,[22]; post-treatment,63 days
same,percentage of EBNA2 positive cells after discontinuation of drug,[22]; tumors evaluated 4 days after a 7-day course,persistent induction with no decrement
same,viability,[23],102%

# Reference: US20230053688A1, “METHODS TO ALTER LATENCY IN EBV+ MALIGNANCIES” (Cornell University, priority 2020, published 2023)
